From patent US20070128217A1 (priority 2003, published 2007)

Key:
[1] = test system: rabbit serum obtained by immunizing a rabbit with the SARS-CoV strain Frankfurt 1; type: binding; design: Binding of a rabbit serum to linear peptides / Binding of a rabbit serum to looped peptides / Rabbit serum linear peptides / Rabbit serum looped peptides / Binding of a rabbit serum to linear peptides of protein N of SARS-CoV Urbani (Rabbit serum linear peptides) / Binding of a rabbit serum to looped/cyclic peptides of protein N of SARS-CoV Urbani (Rabbit serum looped peptides): unit not given here
[2] = test system: antibodies in sera from SARS patients (sera 1a, 1b, 2, 6, 37, 62, London, SARS-yellow, SARS-green); type: binding, human; design: Binding of serum 6 to linear peptides of protein X1 of SARS-CoV Urbani / Binding of serum 37 to linear peptides of protein X1 of SARS-CoV Urbani / Binding of serum 6 to looped/cyclic peptide (PEPSCAN-ELISA) / Binding of serum 37 to looped/cyclic peptide (PEPSCAN-ELISA) / Binding of serum 37 to looped/cyclic peptides of protein X1 of SARS-CoV Urbani / Binding of serum 6 to linear peptides of protein X2 / Binding of serum 37 to linear peptides of protein X2 / Binding of serum 37 to looped/cyclic peptides of protein X2 of SARS-CoV Urbani / Binding of serum 6 to linear peptides of protein M of SARS-CoV Urbani / Binding of serum 37 to linear peptides of protein M of SARS-CoV Urbani / Binding of serum 6 to looped/cyclic peptides of protein M of SARS-CoV Urbani / Binding of serum 37 to looped/cyclic peptides of protein M of SARS-CoV Urbani / Binding of serum 6 to linear peptides of protein X3 of SARS-CoV Urbani / Binding of serum 37 to linear peptides of protein X3 of SARS-CoV Urbani / Binding of serum 37 to looped/cyclic peptides of protein X3 of SARS-CoV Urbani / Binding of serum 6 to linear peptides of protein X4 of SARS-CoV Urbani / Binding of serum 37 to linear peptides of protein X4 of SARS-CoV Urbani / Binding of serum 37 to looped/cyclic peptides of protein X4 of SARS-CoV Urbani / Binding of serum 6 to linear peptides of protein X5 of SARS-CoV Urbani / Binding of serum 37 to linear peptides of protein X5 of SARS-CoV Urbani / Binding of serum 37 to looped/cyclic peptides of protein X5 of SARS-CoV Urbani / Binding of serum 6 to linear peptides of protein N of SARS-CoV Urbani / Binding of serum 37 to linear peptides of protein N of SARS-CoV Urbani / Binding of serum 6 to linear peptide (PEPSCAN-ELISA) / Binding of serum 1a to looped/cyclic peptides of protein N of SARS-CoV Urbani / Binding of serum 1b to looped/cyclic peptides of protein N of SARS-CoV Urbani / Binding of serum 2 to looped/cyclic peptides of protein N of SARS-CoV Urbani / Binding of serum 6 to looped/cyclic peptides of protein N of SARS-CoV Urbani / Binding of serum 37 to looped/cyclic peptides of protein N of SARS-CoV Urbani / Binding of serum 62 to looped/cyclic peptides of protein N of SARS-CoV Urbani / Binding of serum London to looped/cyclic peptides of protein N of SARS-CoV Urbani / Binding of serum SARS-green to looped/cyclic peptides of protein N of SARS-CoV Urbani: unit not given here
[3] = test system: control sera (pooled serum of ten healthy LUMC hospital workers; commercial negative donor pooled serum from the Dutch bloodbank); type: binding, human; design: Binding of Control serum LUMC to linear peptides / Binding of Control serum Blood-bank to linear peptides / Binding of Control serum LUMC to looped peptides / Binding of Control Serum Blood-Bank to Looped peptides / Binding of Control serum LUMC to linear peptides of the protein M of SARS-CoV Urbani / Binding of Control serum Blood-bank to linear peptides of the protein M of SARS-CoV Urbani / Binding of Control serum LUMC to looped peptides of the protein M of SARS-CoV Urbani / Binding of Control Serum Blood-Bank to Looped peptides of the protein M of SARS-CoV Urbani: unit not given here

## VFTSCELYHYQECVR
[1]
  Rabbit serum linear peptides: 0.5
  Rabbit serum looped peptides: 0.5
[2]
  Binding of serum 1a to linear peptides of protein X4 of SARS-CoV Urbani: 0.8
  Binding of serum 1a to looped/cyclic peptides of protein X4 of SARS-CoV Urbani: 0.8
  Binding of serum 1b to linear peptides of protein X4 of SARS-CoV Urbani: 0.6
  Binding of serum 1b to looped/cyclic peptides of protein X4 of SARS-CoV Urbani: 0.7
  Binding of serum 2 to linear peptides of protein X4 of SARS-CoV Urbani: 0.4
  Binding of serum 2 to looped/cyclic peptides of protein X4 of SARS-CoV Urbani: 0.7
  Binding of serum 6 to linear peptides of protein X4 of SARS-CoV Urbani: 0.7
  Binding of serum 6 to looped/cyclic peptides of protein X4 of SARS-CoV Urbani: 0.7
  Binding of serum 37 to linear peptides of protein X4 of SARS-CoV Urbani: 0.8
  Binding of serum 37 to looped/cyclic peptides of protein X4 of SARS-CoV Urbani: 0.8
  Binding of serum 62 to linear peptides of protein X4 of SARS-CoV Urbani: 0.8
  Binding of serum 62 to looped/cyclic peptides of protein X4 of SARS-CoV Urbani: 0.7
  Binding of serum London to linear peptides of protein X4 of SARS-CoV Urbani: 0.7
  Binding of serum London to looped/cyclic peptides of protein X4 of SARS-CoV Urbani: 0.3
  Binding of serum SARS-green to linear peptides of protein X4 of SARS-CoV Urbani: 0.7
  Binding of serum SARS-green to looped/cyclic peptides of protein X4 of SARS-CoV Urbani: 0.7
  Binding of serum SARS-yellow to linear peptides of protein X4 of SARS-CoV Urbani: 0.3
  Binding of serum SARS-yellow to looped/cyclic peptides of protein X4 of SARS-CoV Urbani: 0.5
[3]
  Binding of Control Serum Blood-Bank to Looped peptides: 0.7
  Binding of Control serum Blood-bank to linear peptides: 0.7
  Binding of Control serum LUMC to linear peptides: 0.5
  Binding of Control serum LUMC to looped peptides: 0.9

## ITVSQIQLSLLKVTA
[1]
  Binding of a rabbit serum to linear peptides: 0.7
  Binding of a rabbit serum to looped peptides: 0.4
[2]
  Binding of serum 1a to linear peptides of protein X2: 0.6
  Binding of serum 1a to looped/cyclic peptides of protein X2 of SARS-CoV Urbani: 0.5
  Binding of serum 1b to linear peptides of protein X2: 0.5
  Binding of serum 1b to looped/cyclic peptides of protein X2 of SARS-CoV Urbani: 0.5
  Binding of serum 2 to linear peptides of protein X2: 0.4
  Binding of serum 2 to looped/cyclic peptides of protein X2 of SARS-CoV Urbani: 0.4
  Binding of serum 6 to linear peptides of protein X2: 0.5
  Binding of serum 6 to looped/cyclic peptides of protein X2 of SARS-CoV Urbani: 1.4
  Binding of serum 37 to linear peptides of protein X2: 0.6
  Binding of serum 37 to looped/cyclic peptides of protein X2 of SARS-CoV Urbani: 0.5
  Binding of serum 62 to linear peptides of protein X2: 0.4
  Binding of serum 62 to looped/cyclic peptides of protein X2 of SARS-CoV Urbani: 0.5
  Binding of serum London to linear peptides of protein X2: 0.4
  Binding of serum London to looped/cyclic peptides of protein X2 of SARS-CoV Urbani: 1.4
  Binding of serum SARS-green to linear peptides of protein X2: 0.1
  Binding of serum SARS-green to looped/cyclic peptides of protein X2 of SARS-CoV Urbani: 0.3
  Binding of serum SARS-yellow to linear peptides of protein X2: 0.7
  Binding of serum SARS-yellow to looped/cyclic peptides of protein X2 of SARS-CoV Urbani: 0.6
[3]
  Binding of Control Serum Blood-Bank to Looped peptides: 0.6
  Binding of Control serum Blood-bank to linear peptides: 0.5
  Binding of Control serum LUMC to linear peptides: 0.6
  Binding of Control serum LUMC to looped peptides: 0.7
